Source: patent publication US20240398818A1, “Cardiosafe Antidiabetic Therapy” (priority 2018, published 2024)

Tested on: adult patients with type 2 diabetes mellitus and with increased or high or very high CV risk evidenced by a history of established macrovascular or renal …
Assay: Cardiovascular (Safety) and Renal Microvascular Outcome Trial (linagliptin versus placebo)
Format: in vivo
Settings: for All-cause mortality, Hazard Ratio: linagliptin vs placebo
Protocol: The effect of linagliptin on cardiovascular risk in adult patients with type 2 diabetes mellitus and with increased or high or very high CV risk evidenced by a history of established macrovascular or renal disease was evaluated in a Cardiovascular and Renal Microvascular Outcome Trial, a multi-center, multi-national, randomized, double-blind parallel group trial. The trial compared the risk of experiencing a major adverse cardiovascular event (MACE) between linagliptin and placebo when these were added to and used concomitantly with standard of care treatments for diabetes and other cardiovascular risk factors. The trial was event driven and patients were followed until at least 611 primary outcome events accrued.
A total of 6979 patients were treated (linagliptin 5 mg=3494; placebo=3485) and followed for a median of 2.2 years (median time on treatment 1.9 years). Approximately 80% of the study population was Caucasian, 9% was Asian, and 6% was Black. The mean age was 66 years and 63% were male.
The trial population included 1211 (17.4%) patients ≥75 years of age and 4348 (62.3%) patients with renal impairment. Approximately 19% of the population had eGFR ≥45 to <60 mL/min/1.73 m2, 28% of the population had eGFR ≥30 to <45 mL/min/1.73 m2 and 15% had eGFR <30 mL/min/1.73 m2. Overall, the use of diabetes medications was balanced across treatment groups (metformin 54%, sulfonylurea 32%, and insulin 57%). The use of medications to reduce cardiovascular risk was also balanced (aspirin 62%, statins 72%, ACE inhibitors or ARBs 81%, beta blockers 60%, and calcium channel blockers 41%).
The primary endpoint in the Cardiovascular and Renal Microvascular Outcome Trial was the time to first occurrence of three point (3P) MACE. A major adverse cardiac event was defined as a cardiovascular death or a nonfatal myocardial infarction (MI) or a nonfatal stroke. The statistical analysis plan tested for non-inferiority for the occurrence of (3P) MACE. The secondary endpoint was a renal composite, defined as renal death or sustained end stage renal disease or sustained decrease of 40% or more in eGFR.
The microvascular endpoint was defined as the composite of renal death, sustained ESRD, sustained decrease of ≥50% in eGFR, albuminuria progression, use of retinal photocoagulation or intravitreal injections of an anti-VEGF therapy for diabetic retinopathy or vitreous hemorrhage or diabetes-related-blindness. The estimated hazard ratio for time to first occurrence for the composite microvascular endpoint was 0.86 (95% CI 0.78, 0.95) for linagliptin versus placebo; mainly driven by albuminuria progression.
People with type 2 diabetes (T2D) with concomitant chronic kidney disease (CKD) and cardiovascular (CV) disease are at increased risk for recurrent CV events and hypoglycemia. Treatment of these individuals is clinically challenging, where the evidence-base for safety and efficacy of glucose lowering drugs is scarce, in particular in GFR categories G3b (eGFR 30-44 ml/min/1.73 m2), G4 (eGFR <30) and G5 (eGFR <15). We analyzed baseline characteristics and effects on CV and kidney outcomes with the DPP-4 inhibitor linagliptin (LINA) vs. placebo (PBO), across GFR categories in the Cardiovascular and Renal Microvascular Outcome Trial. People with T2D and either i) UACR >30 mg/g with concomitant CV disease, or ii) eGFR <45 ml/min/1.73 m^2 regardless of UACR, or eGFR ≥45-75 mL/min/1.73 m^2 and UACR >200 mg/g, were randomized to LINA 5 mg or placebo (PBO) q.d. in a double-blind fashion. The primary outcome was first occurrence of CV death, non-fatal myocardial infarction, or non-fatal stroke (3P-MACE), with an adjudicated secondary composite outcome of ESKD, renal death, or sustained ≥40% decrease in eGFR from baseline. Other adjudicated outcomes included hospitalized heart failure (hHF) and the 3P-MACE components. Subgroup-effects across GFR categories (G≤2, G3a, G3b and G≥4) were also assessed. […]

[1] = LINA vs PBO, across all GFR categories
[2] = linagliptin relative to placebo, listed as linagliptin

Question: What does the source list for `CC#CCn1c(N2CCC[C@@H](N)C2)nc2c1c(=O)n(Cc1nc(C)c3ccccc3n1)c(=O)n2C` [Linagliptin, 1-[(4-methyl-quinazolin-2-yl)methyl]-3-methyl-7-(2-butyn-1-yl)-8-(3-(R)-amino-piperidin-1-yl)-xanthine]?
Answer: HbA1c (in words) [1]: reduced significantly; risk for hypoglycemia (in words) [1]: without increased risk; Progression of albuminuria category, patients with event / patients analysed (in vivo): 763/2162; risk of HHF regardless of baseline renal function (in words) (in vivo): did not affect; Hospitalization for heart failure, Hazard Ratio (linagliptin relative to placebo): 0.90; Secondary renal composite, Hazard Ratio (linagliptin relative to placebo, listed as LINA): 1.04; 3P-MACE, Hazard Ratio (linagliptin relative to placebo, listed as TRADJENTA): 1.02; 3P-MACE, Hazard Ratio [2]: 1.02; Secondary renal composite, Hazard Ratio [2]: 1.04; albuminuria progression (normo- to micro-/macroalbuminuria, or micro- to macroalbuminuria), hazard ratio (linagliptin versus placebo): 0.86; composite microvascular endpoint, time to first occurrence, hazard ratio (linagliptin versus placebo, mainly driven by albuminuria progression): 0.86; All-cause mortality, Hazard Ratio: 0.98; All-cause mortality, Hazard Ratio (listed as TRADJENTA): 0.98; All-cause mortality, Hazard Ratio (listed as linagliptin): 0.98; 3P-MACE, Incidence Rate per 1000 PY (median follow-up 2.2 years): 57.7 per 1000 PY; 3P-MACE, Subjects (%) (median follow-up 2.2 years): (12.4) %; All-cause mortality, Incidence Rate per 1000 PY (median follow-up 2.2 years): 46.9 per 1000 PY; All-cause mortality, Subjects (%) (median follow-up 2.2 years): (10.5) %; Hospitalization for heart failure, Incidence Rate per 1000 PY (median follow-up 2.2 years): 27.7 per 1000 PY; Hospitalization for heart failure, Number of Subjects (median follow-up 2.2 years): 209; Hospitalization for heart failure, Subjects (%) (median follow-up 2.2 years): (6.0) %; Secondary renal composite (renal death, ESRD, 40% sustained decrease in eGFR), Number of Subjects (median follow-up 2.2 years): 327; Secondary renal composite, Incidence Rate per 1000 PY (median follow-up 2.2 years): 48.9 per 1000 PY; Composite of first event of CV death, non-fatal MI, or non-fatal stroke (3P-MACE), Number of Subjects (median follow-up 2.2 years, added to standard of care): 434; All-cause mortality, Subjects (%) (median follow-up 2.2 years, listed as TRADJENTA): (10.5%); Hospitalization for heart failure, Subjects (%) (median follow-up 2.2 years, listed as linagliptin): 6.0%
